Assay results reported in patent US9546153B2, “Bicyclic heterocycle substituted pyridyl compounds useful as kinase modulators” (BRISTOL-MYERS SQUIBB COMPANY, priority 2012, dated 2017).
Read-outs that look alike come from different tables or passages of the source.

Experiments:
[1] = target: IRAK4 (Homo sapiens (Human), UniProt Q9NWZ3); assay: IRAK4 Inhibition Assay; format: biochemical; conditions: ATP 500 μM; IRAK4 0.6 nM; 60 min at room temperature
Description: The assays were performed in U-bottom 384-well plates. […] The reaction was initiated by the combination of IRAK4 with substrates and test compounds. The reaction was incubated at room temperature for 60 min. and terminated by adding 45 μL of 35 mM EDTA to each sample. The reaction mixture was analyzed on the Caliper LABCHIP® 3000 (Caliper, Hopkinton, Mass.) by electrophoretic separation of the fluorescent substrate and phosphorylated product.

[2] = system: TLR2 induced IL-6 in peripheral blood mononuclear cells (PBMCs); assay: PBMC TLR2 Induced IL-6 Assay; format: cell-based, human; conditions: human PBMCs, 10 μg/ml lipoteichoic acid for 5 hours, IL-6 by ELISA; for IC50: value without asterisk, read-out: Cell IC50; for EC50: EC50 determinations are indicated with an asterisk, read-out: Cell EC50 (asterisk)
Procedure, shortened: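 IL-6 ELISA of supernatants after a 5 h challenge with the TLR2 agonist lipoteichoic acid (10 μg/ml). Before stimulation, human PBMCs (250000 cells/well; RPMI, 10% heat-inactivated FCS) received compound for 30 min at 37° C. Values given as IC50 or EC50.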

Sequence of IRAK4 (Q9NWZ3 whole entry, species assumed): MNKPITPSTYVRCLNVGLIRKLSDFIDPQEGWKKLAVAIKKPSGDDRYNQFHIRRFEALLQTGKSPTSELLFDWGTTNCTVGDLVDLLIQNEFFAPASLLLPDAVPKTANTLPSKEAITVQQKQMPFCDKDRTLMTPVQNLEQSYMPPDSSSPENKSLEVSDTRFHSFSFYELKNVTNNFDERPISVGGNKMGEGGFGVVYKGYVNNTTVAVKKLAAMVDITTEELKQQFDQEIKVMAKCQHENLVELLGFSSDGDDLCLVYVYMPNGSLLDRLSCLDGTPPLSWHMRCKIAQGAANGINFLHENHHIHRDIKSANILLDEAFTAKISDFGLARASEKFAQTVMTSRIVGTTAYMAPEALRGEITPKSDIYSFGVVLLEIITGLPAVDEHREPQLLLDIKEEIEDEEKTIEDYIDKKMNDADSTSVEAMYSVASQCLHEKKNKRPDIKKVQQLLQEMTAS

Row | Compound | IC50 [1] | IC50 ([2]; Homo sapiens, PBMC, 5 h) | IC50 [2] | EC50 ([2]; Homo sapiens, PBMC, 5 h) | EC50 [2]
1 | CC(C)(O)[C@H](F)CNC(=O)c1cnc(Nc2ccc3ncc(C#N)cc3n2)cc1NC1CCC(F)(F)C1 (stereo partly drawn) [Example 407] | 2.7 nM |  | 260 nM |  | 
2 | CC(C)Nc1cc(Nc2ccc3ncsc3c2)ncc1C(=O)NCC[C@@H](C)NC(=O)c1ccccc1 [Example 185] | 4.4 nM | 620 nM |  |  | 
3 | COc1ncnc2ccc(Nc3cc(NC4CCOCC4)c(C(=O)NC[C@@H](F)C(C)(C)O)cn3)cc12 [Example 124] | 3.9 nM | 420 nM |  |  | 
4 | CC(C)(O)[C@H](F)CNC(=O)c1cnc(Nc2ccc3ncsc3c2)cc1NC12CCC(N)(CC1)C2 [Example 140] | 2.3 nM | 219 nM |  |  | 
5 | CC(C)(O)C1CCC(NC(=O)c2cnc(Nc3ccc4ncsc4c3)cc2NC2CCCOC2)CC1 (stereo not drawn) [Example 490] | 4.2 nM |  |  | 277 nM | 
6 | CNC(=O)c1cnc(Nc2ccc3c(c2)C(F)(F)C(=O)N3)cc1NC1CCCC1 [Example 1, 4-(cyclopentylamino)-6-(3,3-difluoro-2-oxoindolin-5-ylamino)-N-methylnicotinamide] | 4.4 nM | 612 nM |  |  | 
7 | CC(C)Nc1cc(Nc2ccc3ncsc3c2)ncc1C(=O)NCC[C@@H](C)NC(=O)Cn1ccnn1 [Example 193] | 3.1 nM | 345 nM |  |  | 
8 | CC(C)(O)[C@H](F)CNC(=O)c1cnc(Nc2nc3scnc3cc2F)cc1NC1CCCC1F (stereo partly drawn) [Example 462] | 1.7 nM |  | 115 nM |  | 
9 | CC(C)(O)[C@H](F)CNC(=O)c1cnc(Nc2ccc3ncccc3n2)cc1NC1CCCC1F (stereo partly drawn) [Example 405] | 5.8 nM |  | 788 nM |  | 
10 | CC(C)Nc1cc(Nc2ccc3ncsc3c2)ncc1C(=O)NCC[C@@H](C)NC(=O)[C@@H]1CC[C@@H](F)C1 [Example 187] | 2.7 nM | 324 nM |  |  | 
11 | CC(=O)N[C@H]1CC[C@@H](NC(=O)c2cnc(Nc3ccc4ncsc4c3)cc2NC(C)C)CC1 [Example 216] | 3.5 nM | 604 nM |  |  | 
12 | CC(C)Nc1cc(Nc2nc3ccnn3cc2F)ncc1C(=O)NC1CCC(C(C)(C)O)CC1 (stereo not drawn) [Example 457] | 3.4 nM | 1550 nM |  |  | 
13 | CC(C)Nc1cc(Nc2ccc3ncsc3c2)ncc1C(=O)NCC[C@@H](C)NC(=O)CCCCC(C)(C)O [Example 191] | 3.4 nM | 451 nM |  |  | 
14 | CC(C)(F)CNc1cc(Nc2ncc3ncsc3c2F)ncc1C(=O)NC1CCC(C(C)(C)O)CC1 (stereo not drawn) [Example 489] | 8.2 nM |  |  | 374 nM | 
15 | CC(C)Nc1cc(Nc2ccc3ncsc3c2)ncc1C(=O)N[C@H]1CC[C@H](C(=O)NC2(C#N)CC2)C1 [Example 222] | 9.9 nM | 692 nM |  |  | 
16 | O=C(NC1CCC(O)CC1)c1cnc(Nc2ccc3ncsc3c2)cc1NC1CCCC1F (stereo not drawn) [Example 352] | 3.8 nM |  | 245 nM |  | 
17 | CC(C)NC(=O)N[C@@H](C)CCNC(=O)c1cnc(Nc2ccc3ncsc3c2)cc1NC(C)C [Example 181] | 7.6 nM | 453 nM |  |  | 
18 | CC(C)Nc1cc(Nc2ccc3ncsc3c2)ncc1C(=O)NC1CCc2nc(N)sc2C1 (stereo not drawn) [Example 521] | 8.5 nM | 2330 nM |  |  | 
19 | CC(C)(O)[C@H](F)CNC(=O)c1cnc(Nc2ccc3ncc(C#N)cc3n2)cc1NC1CCCOC1 (stereo partly drawn) [Example 443] | 4.5 nM |  | 125 nM |  | 
20 | CCOC(=O)C1CC(Nc2cc(Nc3ccc4ncsc4c3)ncc2C(=O)NC[C@@H](F)C(C)(C)O)C1 (stereo partly drawn) [Example 70] | 8.7 nM | 530 nM |  |  | 
21 | CC(=O)NCCCCNC(=O)c1cnc(Nc2ccc3ncsc3c2)cc1NC(C)C [Example 209] | 5.3 nM | 875 nM |  |  | 
22 | CC(C)Nc1cc(Nc2ccc3ncsc3c2)ncc1C(=O)NC12CCC(N)(CC1)CC2 [Example 223] | 4.2 nM | 238 nM |  |  | 
23 | CC(C)Nc1cc(Nc2ccc3ncsc3c2)ncc1C(=O)N[C@H]1CC[C@H](N)CC1 [Example 203] | 3.4 nM | 307 nM |  |  | 
24 | CC(C)(O)[C@H](F)CNC(=O)c1cnc(Nc2ccc3ncccc3n2)cc1NC1CC1 [Example 122] | 4.2 nM | 207 nM |  |  | 

The next lines start with results.

Row | IC50 [1] | Compound | IC50 ([2]; Homo sapiens, PBMC, 5 h) | IC50 [2] | EC50 ([2]; Homo sapiens, PBMC, 5 h) | EC50 [2]
25 | 3.4 nM | CC(C)(O)[C@H](F)CNC(=O)c1cnc(Nc2cc3scnc3cc2F)cc1NCC(F)(F)F [Example 515] | 450 nM |  |  | 
26 | 58 nM | CC(Nc1cc(Nc2ccc3ncsc3c2)ncc1C(=O)NC[C@@H](F)C(C)(C)O)C1CC1 (stereo partly drawn) [Example 106] | 570 nM |  |  | 
27 | 3.6 nM | CC(C)Nc1cc(Nc2ccc3ncccc3n2)ncc1C(=O)NC[C@@H](F)C(C)(C)O [Example 123] | 271 nM |  |  | 
28 | 2.2 nM | CC(C)(O)[C@H](F)CNC(=O)c1cnc(Nc2nc3scnc3cc2F)cc1NCC(F)(F)F [Example 519] | 634 nM |  |  | 
29 | 13.8 nM | CC(C)(O)[C@H](F)CNC(=O)c1cnc(Nc2ccc3nccnc3c2)cc1NC1CCCOC1 (stereo partly drawn) [Example 71] | 415 nM |  |  | 
30 | 2.5 nM | CC(C)(O)[C@H](F)CNC(=O)c1cnc(Nc2ccn3nccc3n2)cc1NC1CCC(F)C1 (stereo partly drawn) [Example 254] |  | 131 nM |  | 
31 | 2.7 nM | CC(C)(F)CNc1cc(Nc2ccc3ncsc3n2)ncc1C(=O)NC[C@@H](F)C(C)(C)O [Example 314] | 115 nM |  |  | 
32 | 5.9 nM | CC(C)Nc1cc(Nc2cc(F)c3ncsc3c2)ncc1C(=O)NC[C@@H](F)C(C)(C)O [Example 120] | 459 nM |  |  | 
33 | 1 nM | CC(C)Nc1cc(Nc2ccn3ncc(F)c3c2)ncc1C(=O)NC[C@@H](F)C(C)(C)O [Example 288] | 134 nM |  |  | 
34 | 2.1 nM | CC(C)(O)[C@H](F)CNC(=O)c1cnc(Nc2ccn3nccc3c2F)cc1N[C@@H]1CCCC1(F)F [Example 435] | 79 nM |  |  | 
35 | 2.4 nM | CC(C)(O)[C@H](F)CNC(=O)c1cnc(Nc2ccc3nccn3n2)cc1NC1CCCC1F (stereo partly drawn) [Example 273] | 764 nM |  |  | 
36 | 1.8 nM | CC(C)(O)[C@H](F)CNC(=O)c1cnc(Nc2ccc3ncsc3c2)cc1N[C@@H]1CCCC1F (stereo partly drawn) [Example 344] |  | 38 nM |  | 
37 | 5.3 nM | CC(C)(O)[C@H](F)CNC(=O)c1cnc(Nc2nc3ccnn3cc2F)cc1NC1CC1 [Example 368] |  | 445 nM |  | 
38 | 6.8 nM | CC(C)(O)[C@H](F)CNC(=O)c1cnc(Nc2ccc3ncsc3c2)cc1N[C@H]1CCC(CCO)C1 (stereo partly drawn) [Example 67] |  | 248 nM |  | 
39 | 2.3 nM | CC(C)(O)[C@H](F)CNC(=O)c1cnc(Nc2ccc3ncsc3c2)cc1N[C@H]1CCC(CCO)C1 (stereo partly drawn) [Example 66] |  | 58 nM |  | 
40 | 4.7 nM | CC(C)(O)[C@H](F)CNC(=O)c1cnc(Nc2ccn3nccc3n2)cc1NC1CC1 [Example 236] | 346 nM |  |  | 
41 | 4.8 nM | CCCCNc1cc(Nc2ccc3ncsc3c2)ncc1C(=O)NC[C@@H](F)C(C)(C)O [Example 160] | 109 nM |  |  | 

Row | IC50 [1] | Compound | IC50 ([2]; Homo sapiens, PBMC, 5 h) | IC50 [2] | EC50 ([2]; Homo sapiens, PBMC, 5 h) | EC50 [2]
42 | 16 nM | CC(C)(O)[C@H](F)CNC(=O)c1cnc(Nc2ccc3ncsc3c2)cc1NCC1CCCO1 (stereo partly drawn) [Example 93] | 619 nM |  |  | 
43 | 2.2 nM | CC(C)(O)[C@H](F)CNC(=O)c1cnc(Nc2ccc3ncncc3c2)cc1N[C@@H]1CCC[C@H]1O [Example 330] | 76 nM |  |  | 
44 | 5.7 nM | CC(C)(O)[C@H](F)CNC(=O)c1cnc(Nc2ccn3nccc3c2)cc1NC1CCCC1(F)F (stereo partly drawn) [Example 297] | 535 nM |  |  | 
45 | 3.5 nM | CC(C)Nc1cc(Nc2ccc3nsnc3c2)ncc1C(=O)NC[C@@H](F)C(C)(C)O [Example 41] | 318 nM |  |  | 
46 | 1.7 nM | CC(C)(O)[C@H](F)CNC(=O)c1cnc(Nc2ccn3nccc3c2)cc1NC1CCC(F)(F)C1 (stereo partly drawn) [Example 299] |  | 420 nM |  | 
47 | 3.4 nM | CC(C)Nc1cc(Nc2nc3scnc3cc2F)ncc1C(=O)NCC(F)(F)C(C)(C)O [Example 483] | 463 nM |  |  | 
48 | 7.5 nM | CC(C)Nc1cc(Nc2ccc3nonc3c2)ncc1C(=O)NC[C@@H](F)C(C)(C)O [Example 45] | 887 nM |  |  | 
49 | 3.4 nM | CC(C)(O)[C@H](F)CNC(=O)c1cnc(Nc2ccc3ncsc3c2)cc1NC1CCOCC1F (stereo partly drawn) [Example 231] |  | 88 nM |  | 
50 | 6.4 nM | CC(C)(O)[C@H](F)CNC(=O)c1cnc(Nc2nc3ccnn3cc2F)cc1NC1CCCCC1(F)F (stereo partly drawn) [Example 496] |  |  |  | 91 nM
51 | 3.6 nM | CC(C)Nc1cc(Nc2ccn3ncc(C#N)c3n2)ncc1C(=O)NC[C@@H](F)C(C)(C)O [Example 261] | 126 nM |  |  | 
52 | 2.6 nM | CC(C)Nc1cc(Nc2ccc3ncsc3c2)ncc1C(=O)NC[C@@H](F)C(C)(C)O [Example 35] | 482 nM |  |  | 
53 | 7.4 nM | CC1COCCC1Nc1cc(Nc2ccc3ncsc3c2)ncc1C(=O)NC[C@@H](F)C(C)(C)O (stereo partly drawn) [Example 233] |  | 469 nM |  | 
54 | 2.8 nM | CC(C)(O)[C@H](F)CNC(=O)c1cnc(Nc2ccn3nccc3n2)cc1NC1CCCC1F (stereo partly drawn) [Example 245] | 390 nM |  |  | 
55 | 2.4 nM | CCNc1cc(Nc2ccc3ncsc3n2)ncc1C(=O)NC[C@@H](F)C(C)(C)O [Example 311] | 81 nM |  |  | 
56 | 1.5 nM | CC(C)(F)CNc1cc(Nc2ccc3ncsc3c2)ncc1C(=O)NC[C@@H](F)C(C)(C)O [Example 126] | 102 nM |  |  | 
57 | 4.5 nM | CC(C)Nc1cc(Nc2cc3nccnc3cc2F)ncc1C(=O)NC[C@@H](F)C(C)(C)O [Example 501] |  |  | 209 nM | 
